Assay results reported in PubChem BioAssay AID2060507 (Molecular Pharmacology Branch, DTP, NCI, 2025).

System: 519858-162-T-J1-PDC complex spheroid viability
Experiment: Anticancer human tumor 519858-162-T-J1-PDC patient-derived colon adenocarcinoma cell line growth inhibition [GQUAD]
Settings: for IC50: curve of first compound; for viability, T/C: stronger effect = lower value
Summary of the method: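 Multi-cell-type spheroids of tumor cells with HUVEC and mesenchymal stem cells, treated with drug combinations. Concentrations descend in half-log steps from near clinical Cmax, or from 10 microM where Cmax is unknown; viability read-out.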

[1] = second compound 0.0316 µM, first compound 0.000999 µM
[2] = second compound 0.0316 µM, first compound 0.00316 µM
[3] = second compound 0.0316 µM, first compound 0.00999 µM
[4] = second compound 0.0316 µM, first compound 0.0316 µM
[5] = second compound 0.0316 µM, first compound 0.0999 µM
[6] = second compound 0.0316 µM, first compound 0.316 µM
[7] = second compound 0.1 µM, first compound 0.000999 µM
[8] = second compound 0.1 µM, first compound 0.00316 µM
[9] = second compound 0.1 µM, first compound 0.00999 µM
[10] = second compound 0.1 µM, first compound 0.0316 µM
[11] = second compound 0.1 µM, first compound 0.0999 µM
[12] = second compound 0.1 µM, first compound 0.316 µM
[13] = second compound 0.316 µM, first compound 0.000999 µM
[14] = second compound 0.316 µM, first compound 0.00316 µM
[15] = second compound 0.316 µM, first compound 0.00999 µM
[16] = second compound 0.316 µM, first compound 0.0316 µM
[17] = second compound 0.316 µM, first compound 0.0999 µM
[18] = second compound 0.316 µM, first compound 0.316 µM
[19] = second compound 1 µM, first compound 0.000999 µM
[20] = second compound 1 µM, first compound 0.00316 µM
[21] = second compound 1 µM, first compound 0.00999 µM
[22] = second compound 1 µM, first compound 0.0316 µM
[23] = second compound 1 µM, first compound 0.0999 µM
[24] = second compound 1 µM, first compound 0.316 µM
[25] = second compound 3.16 µM, first compound 0.000999 µM
[26] = second compound 3.16 µM, first compound 0.00316 µM
[27] = second compound 3.16 µM, first compound 0.00999 µM
[28] = second compound 3.16 µM, first compound 0.0316 µM
[29] = second compound 3.16 µM, first compound 0.0999 µM
[30] = second compound 3.16 µM, first compound 0.316 µM
[31] = second compound 10 µM, first compound 0.000999 µM
[32] = second compound 10 µM, first compound 0.00316 µM
[33] = second compound 10 µM, first compound 0.00999 µM
[34] = second compound 10 µM, first compound 0.0316 µM
[35] = second compound 10 µM, first compound 0.0999 µM
[36] = second compound 10 µM, first compound 0.316 µM
[37] = second compound 0.0316 µM, first compound 0.1 µM
[38] = second compound 0.0316 µM, first compound 1 µM
[39] = second compound 0.0316 µM, first compound 3.16 µM
[40] = second compound 0.0316 µM, first compound 10 µM
[41] = second compound 0.1 µM, first compound 0.1 µM
[42] = second compound 0.1 µM, first compound 1 µM
[43] = second compound 0.1 µM, first compound 3.16 µM
[44] = second compound 0.1 µM, first compound 10 µM
[45] = second compound 0.316 µM, first compound 0.1 µM
[46] = second compound 0.316 µM, first compound 1 µM
[47] = second compound 0.316 µM, first compound 3.16 µM
[48] = second compound 0.316 µM, first compound 10 µM
[49] = second compound 1 µM, first compound 0.1 µM
[50] = second compound 1 µM, first compound 1 µM
[51] = second compound 1 µM, first compound 3.16 µM
[52] = second compound 1 µM, first compound 10 µM
[53] = second compound 3.16 µM, first compound 0.1 µM
[54] = second compound 3.16 µM, first compound 1 µM
[55] = second compound 3.16 µM, first compound 3.16 µM
[56] = second compound 3.16 µM, first compound 10 µM
[57] = second compound 10 µM, first compound 0.1 µM
[58] = second compound 10 µM, first compound 1 µM
[59] = second compound 10 µM, first compound 3.16 µM
[60] = second compound 10 µM, first compound 10 µM
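Also: spheroids exposed to compounds for 7 days.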
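For viability, T/C in this document: 100% = DMSO vehicle control viability.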

With `CC[C@@]1(O)C(=O)OCc2c1cc1n(c2=O)Cc2cc3c(CN(C)C)c(O)ccc3nc2-1` + Cc1[nH]c2ccc(F)cc2c1-c1nc2c3cccnc3c3ncccc3c2[nH]1 the IC50 (second compound 0.0316 µM) was > 316 nM, the IC50 (second compound 0.1 µM) was > 316 nM and the IC50 (second compound 0.316 µM) was > 316 nM. The IC50 (second compound 1 µM) was > 316 nM, the IC50 (second compound 3.16 µM) was 0.999 nM and the IC50 (second compound 10 µM) was > 316 nM. The viability, T/C [1] was 119%, the viability, T/C [2] was 106% and the viability, T/C [3] was 103%. The viability, T/C [4] was 76.5%, the viability, T/C [5] was 72.1% and the viability, T/C [6] was 88.9%. The viability, T/C [7] was 86%, the viability, T/C [8] was 90.9% and the viability, T/C [9] was 94.3%. The viability, T/C [10] was 88.9%, the viability, T/C [11] was 73.2% and the viability, T/C [12] was 75.5%. For the same compound, the viability, T/C [13] was 58.7%, the viability, T/C [14] was 97.1% and the viability, T/C [15] was 99.3%. It also gave a viability, T/C [16] of 93.8%, a viability, T/C [17] of 97.2% and a viability, T/C [18] of 69.4%. For the same compound, the viability, T/C [19] was 86%, the viability, T/C [20] was 60.9% and the viability, T/C [21] was 85.1%. It also gave a viability, T/C [22] of 104%, a viability, T/C [23] of 69.7% and a viability, T/C [24] of 75.9%. For the same compound, the viability, T/C [25] was 56.4%, the viability, T/C [26] was 55.6% and the viability, T/C [27] was 46.5%. It also gave a viability, T/C [28] of 48.6%, a viability, T/C [29] of 78.1% and a viability, T/C [30] of 77.1%. The viability, T/C [31] was 60%, the viability, T/C [32] was 58.3% and the viability, T/C [33] was 50.7%. It also gave a viability, T/C [34] of 60.9%, a viability, T/C [35] of 85.3% and a viability, T/C [36] of 60%.

In the case of `CCc1c2c(nc3ccc(O)cc13)-c1cc3c(c(=O)n1C2)COC(=O)[C@]3(O)CC` + Cc1[nH]c2ccc(F)cc2c1-c1nc2c3cccnc3c3ncccc3c2[nH]1, the IC50 (second compound 0.0316 µM) is reported as > 316 nM, the IC50 (second compound 0.1 µM) is reported as > 316 nM and the IC50 (second compound 0.316 µM) is reported as > 316 nM. The IC50 (second compound 1 µM) was > 316 nM, the IC50 (second compound 3.16 µM) was > 316 nM and the IC50 (second compound 10 µM) was < 0.999 nM. The viability, T/C [1] was 124%, the viability, T/C [2] was 86% and the viability, T/C [3] was 70.5%. It also gave a viability, T/C [4] of 86.6%, a viability, T/C [5] of 56.6% and a viability, T/C [6] of 62.8%. For the same compound, the viability, T/C [7] was 85%, the viability, T/C [8] was 96.9% and the viability, T/C [9] was 63.7%. It also gave a viability, T/C [10] of 63.2%, a viability, T/C [11] of 84.2% and a viability, T/C [12] of 52.9%. For the same compound, the viability, T/C [13] was 99.9%, the viability, T/C [14] was 105% and the viability, T/C [15] was 60.8%. For the same compound, the viability, T/C [16] was 53.9%, the viability, T/C [17] was 63.4% and the viability, T/C [18] was 59.4%. For the same compound, the viability, T/C [19] was 89.8%, the viability, T/C [20] was 75.2% and the viability, T/C [21] was 78.2%. For the same compound, the viability, T/C [22] was 83.6%, the viability, T/C [23] was 54.6% and the viability, T/C [24] was 62.8%. For the same compound, the viability, T/C [25] was 68.5%, the viability, T/C [26] was 53.3% and the viability, T/C [27] was 47.8%. For the same compound, the viability, T/C [28] was 61.1%, the viability, T/C [29] was 80% and the viability, T/C [30] was 49.9%. The viability, T/C [31] was 39.9%, the viability, T/C [32] was 50.2% and the viability, T/C [33] was 69.7%. For the same compound, the viability, T/C [34] was 56.6%, the viability, T/C [35] was 74.5% and the viability, T/C [36] was 76.2%.

For `COc1cccc2c1C(=O)c1c(O)c3c(c(O)c1C2=O)CC(O)(C(=O)CO)CC3OC1CC(N)C(O)C(C)O1` (stereo not drawn) + Cc1[nH]c2ccc(F)cc2c1-c1nc2c3cccnc3c3ncccc3c2[nH]1, the IC50 (second compound 0.0316 µM) was > 10000 nM, the IC50 (second compound 0.1 µM) was > 10000 nM and the IC50 (second compound 0.316 µM) was > 10000 nM. The IC50 (second compound 1 µM) was > 10000 nM, the IC50 (second compound 3.16 µM) was > 10000 nM and the IC50 (second compound 10 µM) was > 10000 nM. It also gave a viability, T/C [4] of 117%, a viability, T/C [37] of 126% and a viability, T/C [6] of 95.3%. It also gave a viability, T/C [38] of 81.9%, a viability, T/C [39] of 82.1% and a viability, T/C [40] of 75.3%. For the same compound, the viability, T/C [10] was 104%, the viability, T/C [41] was 122% and the viability, T/C [12] was 98.5%. It also gave a viability, T/C [42] of 80.1%, a viability, T/C [43] of 61.3% and a viability, T/C [44] of 62.1%. The viability, T/C [16] was 82.3%, the viability, T/C [45] was 95.4% and the viability, T/C [18] was 121%. The viability, T/C [46] was 78.6%, the viability, T/C [47] was 72.9% and the viability, T/C [48] was 50.6%. The viability, T/C [22] was 109%, the viability, T/C [49] was 98.6% and the viability, T/C [24] was 109%. For the same compound, the viability, T/C [50] was 70.2%, the viability, T/C [51] was 69.9% and the viability, T/C [52] was 51.9%. The viability, T/C [28] was 96.3%, the viability, T/C [53] was 72.7% and the viability, T/C [30] was 78.3%. For the same compound, the viability, T/C [54] was 68.2%, the viability, T/C [55] was 62.4% and the viability, T/C [56] was 72.9%. It also gave a viability, T/C [34] of 47%, a viability, T/C [57] of 79.9% and a viability, T/C [36] of 60.7%. The viability, T/C [58] was 51.4%, the viability, T/C [59] was 44% and the viability, T/C [60] was 78.1%.

With `O=C(c1cc(Cc2n[nH]c(=O)c3ccccc23)ccc1F)N1CCN(C(=O)C2CC2)CC1` + Cc1[nH]c2ccc(F)cc2c1-c1nc2c3cccnc3c3ncccc3c2[nH]1 the IC50 (second compound 0.0316 µM) was > 10000 nM, the IC50 (second compound 0.1 µM) was > 10000 nM and the IC50 (second compound 0.316 µM) was > 10000 nM. For the same compound, the IC50 (second compound 1 µM) was > 10000 nM, the IC50 (second compound 3.16 µM) was < 31.6 nM and the IC50 (second compound 10 µM) was > 10000 nM. For the same compound, the viability, T/C [4] was 122%, the viability, T/C [37] was 85.5% and the viability, T/C [6] was 82.7%. For the same compound, the viability, T/C [38] was 66.6%, the viability, T/C [39] was 68% and the viability, T/C [40] was 111%. It also gave a viability, T/C [10] of 110%, a viability, T/C [41] of 85.3% and a viability, T/C [12] of 87.7%. The viability, T/C [42] was 102%, the viability, T/C [43] was 103% and the viability, T/C [44] was 63.6%. For the same compound, the viability, T/C [16] was 105%, the viability, T/C [45] was 97.9% and the viability, T/C [18] was 81.9%. It also gave a viability, T/C [46] of 100%, a viability, T/C [47] of 75.6% and a viability, T/C [48] of 97.1%. It also gave a viability, T/C [22] of 82.7%, a viability, T/C [49] of 100% and a viability, T/C [24] of 102%. The viability, T/C [50] was 81.2%, the viability, T/C [51] was 69.9% and the viability, T/C [52] was 95.3%. The viability, T/C [28] was 49.2%, the viability, T/C [53] was 63% and the viability, T/C [30] was 92%. It also gave a viability, T/C [54] of 59.2%, a viability, T/C [55] of 79.8% and a viability, T/C [56] of 71.1%. For the same compound, the viability, T/C [34] was 86.1%, the viability, T/C [57] was 69.9% and the viability, T/C [36] was 52.6%. The viability, T/C [58] was 81.6%, the viability, T/C [59] was 51.8% and the viability, T/C [60] was 53.7%.
